Results from patent publication US10800834B2, “HER-1, HER-3 and IGF-1R compositions and uses thereof” (OHIO STATE INNOVATION FOUNDATION, priority 2013, dated 2020).
“Also recorded” adds a separate entry of the source.

Tests used:
[1] = test system: BxPC-3, MCF-7 and JIMT-1 cancer cells; assay: MTT proliferation assay with IGF-1R peptide mimics; format: cell-based, human; settings: 25, 50, 100, 150 μg/ml, three days
Description: The effects of treatment with the IGF-1R peptide mimics were evaluated as inhibitors on proliferation of human pancreatic (BxPC-3) and breast (MCF-7 and JIMT-1) cancer cells. Ligand binding to the IGF-1 receptor results in activation that causes increase proliferation of the receptor and intracellular signaling. Accordingly, the effects of the IGF-1R peptide mimics on ligand binding inhibition and inhibition of cancer cell line proliferation were determined. To measure proliferation, the MTT assay was used where the cells were treated with the inhibitors at different concentrations and incubated for three days before adding MTT.

[2] = test system: BxPC-3 pancreatic and JIMT-1 breast cancer cells; assay: SCID transplantable breast and pancreatic mouse model, IGF-1R peptides; format: in vivo; settings: 200 μg i.v. weekly for 7 weeks; P values <0.05
Description: To test the in vivo effects of the chimeric peptides, a transplantable breast and pancreatic mouse model was used. BxPC-3 pancreatic and JIMT-1 breast cancer cells were injected subcutaneously into the flanks of SCID mice. After tumor challenge, the mice were treated intravenously with the IGF-1R peptide mimics starting at day zero (day of tumor challenge) and weekly for a total of 7 weeks. Tumor growth was monitored twice weekly and at the end of treatment, all mice were euthanized and the tumors extracted and weighed and the percentage tumor weight calculated.

IGF-1R = biological target: T1, IGF-1R (Homo sapiens, UniProt P08069); assay: Human-phospho-IGF-1R sandwich ELISA; format: cell-based; settings: MCF-7, JIMT-1 and BxPC-3 cells
T1 construct: IGF-1 signaling in MCF-7, JIMT-1 and BxPC-3 cells were analyzed using protein lysates after treatment; endogenous in cells; host or cells: MCF-7, JIMT-1 (human breast cancer) and BxPC-3 (human pancreatic cancer) cells
Description: The effects of chimeric peptides and antipeptide antibodies on IGF-1 signaling in MCF-7, JIMT-1 and BxPC-3 cells were analyzed using protein lysates after treatment and measurement of phosphorylated levels of the receptors in a sandwich ELISA method using Human-phospho-IGF-1R ELISA kit from R&D diagnostics. […] FIG. 22 A-C is treatment with peptide mimics and FIG. 22-D-F is treatment with peptide vaccine antibodies.

Met-1 cells = assay: FVB/n Met-1 transplantable breast tumor model; format: in vivo, mouse; settings: peptide mimics i.v. weekly; for tumor growth and development: vs untreated and irrelevant peptide
Description: Antitumor effects of immunization with HER-1 peptide vaccines and chimeric peptides in Fvb/n breast cancer model The Fvb/n transplantable model of HER-family dependent breast cancer represents a good model for human breast cancer. The peptide vaccines were dissolved in water and emulsified in Montanide ISA 720 (1:1) and […] (N-acetylglucosamine-3yl-acetyl-1-alanyl-D-isoglutamine). Female wild-type FVB/n mice (Charles River Laboratories) at the age of 5 to 6 weeks were immunized three times at 3-week intervals with […], and 14 days after the third immunization, the mice were challenged s.c. with Met-1 cells (200,000 per mouse). Met-1 cells were derived from the PyMT-transgenic mouse model with FVB/n background. Tumor growth was monitored for up to 6 weeks after challenge. During immunization, blood was drawn biweekly and used in ELISA to monitor Ab titers. In the case of treatment with the chimeric peptides, the mice were simply challenged with Met-1 cells and treated weekly i.v. with […] for up to 6 weeks beginning at day 0. The mice were euthanized at the end of treatment and tumors extracted and weighed.
Tumor tissues were formalin fixed, embedded in paraffin, and stained immunohistochemically for CD31 and Ki-67. The tissue blocks were cut into […], deparaffinized in xylol, and then rehydrated with different grades of alcohol. The rehydrated sections were then washed with distilled water and placed in a microwave oven for 15 minutes. The slides were then blocked and incubated for 40 minutes at 20° C. with primary Abs specific for Ki-67 and CD31.
To evaluate the inhibitory effects of the peptide vaccines in vivo, the FVB/n transplantable mouse model was used in which Met-1 cells from FVB/n background were injected in the mammary fat pad of wild-type FVB/n mice after immunization with the chimeric MVF HER-1 peptides as shown in the immunization schedule (data not shown). Tumor development in this model is dependent on the HER family receptor overexpression. All mice were immunized at 5 to 6 weeks of age and received two boosters at 3-week intervals. As depicted in FIG. 5, the vaccine constructs were immunogenic in the mice, and all of the mice had relatively high titers of the Abs (greater than 40,000). Mice were challenged with Met-1 cells and monitored weekly for 6 weeks.
To test the in vivo effects of the peptide mimics, the same FVB/n model was used as in the case of immunization, but in this experiment, wild-type mice were challenged with Met-1 cells and treated i.v. with the peptide mimics. […] In assessing how the peptide inhibitors exert their effects in vivo, the tumor sections were analyzed after treatment with the peptide mimics for blood vessel density and actively proliferating cells. […] The effect on proliferating cells was most evident in the case of treatment with the 382-410 and the 418-435 constructs (FIG. 7C).

A549 lung cancer cells = assay: BALB/c SCID transplantable lung tumor model; format: in vivo, mouse; design: dose or concentration left out as unconfirmed; settings: i.v. weekly, peptide mimics or cetuximab
Description: […] Tumor growth was measured twice weekly using vernier calipers, and at the end of the experiment, the tumors were extracted and weighed.

BXPC3 cells [3] = assay: BALB/c SCID transplantable mouse model, BXPC3, HER-3 peptide mimics; format: in vivo; settings: BXPC3, peptide mimics i.v. weekly
Description: To test the in vivo effects of the peptide mimics, two transplantable mouse models were used. Mice 4-5 weeks old were challenged with either BXPC3 or JIMT-1 cells subcutaneously into the flank. After tumor challenge, mice were treated intravenously with the peptide mimics starting at day zero (day of tumor challenge) and weekly for a total of 8-9 treatments. Tumor growth was monitored twice weekly and at the end of treatment. All mice were euthanized and weighed. Tumors were also extracted and weighed. Results display tumor volume and % tumor weight (FIG. 16 A-D). Both peptide constructs had the ability to attenuate tumor growth in mice challenged with BXPC3 cells. […] As a result, only the HER-3 (461-479) peptide was used in JIMT-1 tumor model.

[4] = test system: New Zealand white outbred rabbits; assay: Immunogenicity of MVF HER-3 peptide constructs in rabbits (ELISA titers); format: in vivo, rabbit
Description: Two female New Zealand white outbred rabbits (Harlan) were immunized intramuscularly with 1 mg of MVF HER-3 (237-269) or MVF HER-3 (461-479) peptide dissolved in 500 μL PBS and emulsified in 500 μL of Montanide ISA720 vehicle with 100 μg muramyl dipeptide adjuvant, nor-MDP (N-acetylglucosamine-3yl-acetyl-L-alanyl-D-isoglutamine). Subsequent booster injections were given every three weeks after primary immunization. Sera of rabbits immunized with either MVF peptide were collected weekly, and complement was inactivated by heating to 56° C. for 30 minutes. The titer of anti-HER-3 peptide antibodies were quantified by ELISA. The MVF HER-3 (237-269) and MVF HER-3 (461-479) peptides were highly immunogenic by three weeks after the third immunization. Antibody titers against MVF HER-3 (461-479) and MVF HER-3 (237-269) were ≥32,000 and ≥128,000, respectively (FIGS. 9 A & B). High antibody titers were also generated against B cell epitope constructs. HER-3 (461-479) and HER-3 (237-269) antibody titers were ≥16,000 and ≥128,000, respectively (Data not shown). Total IgG was purified from high-titered sera on a protein A/G column (Pierce, Rockford, Ill.) and eluted antibodies were concentrated and exchanged in PBS using 100 kDa cutoff centrifuge filter units (Millipore). Antibody concentrations were determined by Coomassie plus protein assay reagent kit (Pierce).

BxPC3 cells [5] = assay: MTT inhibition assay with HER-3 peptide mimics, BxPC3; format: cell-based, human; settings: 72 hours, HRG stimulated
Description: The HER-3 peptide mimics and peptide vaccine antibodies may provide anti-tumor activity by blocking dimerization or ligand binding of the HER-3 receptor. To test the ability of the chimeric peptides to elicit antitumor effects, HER-3 positive cells were examined in a MTT inhibition assay. The anti-proliferative effects of the peptide mimics were tested at various concentrations (FIG. 13). Taxol, an inhibitor of mitosis, was used as a positive control (data not shown). Cells were seeded in 96 well flat bottom plates at 1×10^4 cells/well in 100 μl growth media and allowed to adhere overnight at 37° C. Media was removed from the wells and replaced with HER3 peptides made up in 1% growth media. Plates were incubated for 1 hour at 37° C., and subsequently stimulated with either 50 ng/mL HRG. Plates were incubated an additional 72 hours at 37° C. before 25 μL of 5 mg/mL MTT was added to each well. Plates were incubated for 2 hours at 37° C., then 100 μL extraction buffer (20% SDA, 50% DMF, pH 4.7) was added. Plates were incubated overnight at 37° C. and read on an ELISA reader at 570 nm. Percent inhibition was calculated by the following equation: (untreated-treated)/untreated×100. Error bars represent SEM of three separate experiments. […] The HER-3 peptide mimics inhibited proliferation of BXPC3, MCF-7 and JIMT-1 cell lines in a dose-dependent manner. […]

[6] = Immunization of transgenic mice with chimeric peptides (summary statement); format: in vivo, mouse; settings: immunization of transgenic mice with one or more of the chimeric peptides

ACPPNTYRFEGWRCVDRDF (Ac-ACPPNTYRFEGWRCVDRDF-NH2; cysteine pairing not given here; listed as Homo sapiens) [IGF-1R (234-252), peptide mimic acetylated and amidated]
inhibition of proliferation (MTT) [1]: inhibition of all three cell lines which was dose dependent; also recorded: dose-dependent inhibition of proliferation
percentage tumor weight [2]: significantly decreased the percentage tumor weight
phosphorylated IGF-1R, treatment with peptides (IGF-1R): able to downregulate the expression of phosphorylated IGF-1R

LIQAWPENRTDLHAFENLEIIRGRTKQHG (Ac-LIQAWPENRTDLHAFENLEIIRGRTKQHG-NH2; listed as Homo sapiens) [HER-1 (382-410), peptide mimic acetylated and amidated]
delay in tumor onset (Met-1 cells): approximately 2 weeks
microvascular density (CD31) in tumor sections (Met-1 cells): significant reduction in microvascular density
percentage tumor weight (Met-1 cells): greater inhibitory effects
proliferating cells (Ki-67) in tumor sections (Met-1 cells): most evident
tumor growth and development (Met-1 cells): decrease in tumor growth and development
tumor growth and development (A549 lung cancer cells): significantly delayed tumor growth and development

ERLDIKHNRPRRDCVAEGK (Ac-ERLDIKHNRPRRDCVAEGK-NH2; listed as Homo sapiens) [HER-3 (461-479), peptide mimic acetylated and amidated]
% tumor weight (BXPC3 cells [3]): significantly decreased the % tumor weight
tumor growth (BXPC3 cells [3]): greater anti-tumor effects
antibody titers against B cell epitope constructs ([4]; sera of rabbits immunized with MVF HER-3 peptides, data not shown): ≥ 16,000

LLFRVAGLESLGDLFPNLTVIRGWKL (Ac-LLFRVAGLESLGDLFPNLTVIRGWKL-NH2; listed as Homo sapiens) [IGF-1R (56-81), peptide mimic acetylated and amidated]
inhibition of proliferation (MTT) [1]: inhibition of all three cell lines which was dose dependent; also recorded: dose-dependent inhibition of proliferation
percentage tumor weight [2]: significantly decreased the percentage tumor weight
phosphorylated IGF-1R, treatment with peptides (IGF-1R): able to downregulate the expression of phosphorylated IGF-1R

SLNITSLGLRSLKEISDG (Ac-SLNITSLGLRSLKEISDG-NH2; listed as Homo sapiens) [HER-1 (418-435), peptide mimic acetylated and amidated]
delay in tumor onset (Met-1 cells): approximately 2 weeks
microvascular density (CD31) in tumor sections (Met-1 cells): significant reduction in microvascular density
percentage tumor weight (Met-1 cells): greater inhibitory effects
proliferating cells (Ki-67) in tumor sections (Met-1 cells): most evident
tumor growth and development (Met-1 cells): decrease in tumor growth and development
tumor growth and development (A549 lung cancer cells): significantly delayed tumor growth and development

FVMLNYNTNSSHALRQLRLTQLTE (Ac-FVMLNYNTNSSHALRQLRLTQLTE-NH2; listed as Homo sapiens) [HER-3 (99-122), peptide mimic acetylated and amidated]
Percent inhibition of proliferation (BxPC3 cells [5]): ~80%

KIEFMYPPPYLDNERSNGTI [irrelevant peptide, negative control peptide, reference compound]
tumor growth and development (Met-1 cells): no inhibitory effects

MVF HER-3 (461-479): HER-3 (461-479) synthesized collinearly with modified MVF epitope (SEQ ID NO:12) and GPSL linker (KLLSLIKGVIVHRLEGVEGPSLERLDIKHNRPRRDCVAEGK)
Antibody titers against MVF peptide ([4]; three weeks after the third immunization): ≥ 32,000
tumor growth after immunization [6]: significant delay of tumor growth
